PMC7044277 (Nature Communications, 2020)
Several values for one entry are separate records, joined by “and”; a condition that tells them apart may be missing. Equal values may be shown once.

Experiments:
Type in all cases: cell-based
320 non-olfactory GPCRs [1] = target: T1, 320 non-olfactory GPCRs (Homo sapiens, UniProt Q5T601)
T1 construct: expressed in transfected cells; host or cells: HTLA cells

320 non-olfactory GPCRs [2] = target: 320 non-olfactory GPCRs (Homo sapiens, UniProt P32238)
320 non-olfactory GPCRs [3] = target: T2, 320 non-olfactory GPCRs (Homo sapiens, UniProt P35408); details: receptor PTGER4; replicate values, Fig_4g
T2 construct: expressed in transfected cells; host or cells: HTLA cells
T2 sequence (P35408 whole entry): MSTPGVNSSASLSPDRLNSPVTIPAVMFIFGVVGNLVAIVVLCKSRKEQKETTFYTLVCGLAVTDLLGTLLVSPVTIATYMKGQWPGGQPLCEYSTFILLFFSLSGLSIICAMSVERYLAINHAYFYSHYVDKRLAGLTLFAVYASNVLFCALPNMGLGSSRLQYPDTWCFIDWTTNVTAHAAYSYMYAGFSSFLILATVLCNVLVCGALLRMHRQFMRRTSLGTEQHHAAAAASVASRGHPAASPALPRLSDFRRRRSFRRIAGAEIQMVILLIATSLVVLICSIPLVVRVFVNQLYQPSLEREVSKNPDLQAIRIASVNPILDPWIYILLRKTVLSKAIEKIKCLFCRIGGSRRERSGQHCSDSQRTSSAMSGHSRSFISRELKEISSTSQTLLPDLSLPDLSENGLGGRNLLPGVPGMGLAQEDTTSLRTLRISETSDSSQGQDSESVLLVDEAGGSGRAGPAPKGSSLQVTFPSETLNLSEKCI

320 non-olfactory GPCRs [4] = target: T3, 320 non-olfactory GPCRs (Homo sapiens, UniProt Q01726); details: receptor MC1R; replicate values, Fig_4g
T3 construct: expressed in transfected cells; host or cells: HTLA cells
T3 sequence (Q01726 whole entry): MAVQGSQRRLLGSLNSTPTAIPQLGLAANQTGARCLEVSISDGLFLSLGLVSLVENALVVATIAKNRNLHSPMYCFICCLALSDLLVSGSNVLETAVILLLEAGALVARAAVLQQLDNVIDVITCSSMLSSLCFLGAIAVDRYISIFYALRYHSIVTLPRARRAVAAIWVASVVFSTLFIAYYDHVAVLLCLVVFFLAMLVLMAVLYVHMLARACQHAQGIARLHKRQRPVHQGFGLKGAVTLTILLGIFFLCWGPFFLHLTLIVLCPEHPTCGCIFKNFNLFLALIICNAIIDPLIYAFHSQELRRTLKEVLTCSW
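Throughout, for Fold of Basal: compound tested at 1 µM final concentration.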
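Throughout, for GPCRome agonism screen response: fold over basal response of each receptor without drug.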

T1 sequence (Q5T601 20-910): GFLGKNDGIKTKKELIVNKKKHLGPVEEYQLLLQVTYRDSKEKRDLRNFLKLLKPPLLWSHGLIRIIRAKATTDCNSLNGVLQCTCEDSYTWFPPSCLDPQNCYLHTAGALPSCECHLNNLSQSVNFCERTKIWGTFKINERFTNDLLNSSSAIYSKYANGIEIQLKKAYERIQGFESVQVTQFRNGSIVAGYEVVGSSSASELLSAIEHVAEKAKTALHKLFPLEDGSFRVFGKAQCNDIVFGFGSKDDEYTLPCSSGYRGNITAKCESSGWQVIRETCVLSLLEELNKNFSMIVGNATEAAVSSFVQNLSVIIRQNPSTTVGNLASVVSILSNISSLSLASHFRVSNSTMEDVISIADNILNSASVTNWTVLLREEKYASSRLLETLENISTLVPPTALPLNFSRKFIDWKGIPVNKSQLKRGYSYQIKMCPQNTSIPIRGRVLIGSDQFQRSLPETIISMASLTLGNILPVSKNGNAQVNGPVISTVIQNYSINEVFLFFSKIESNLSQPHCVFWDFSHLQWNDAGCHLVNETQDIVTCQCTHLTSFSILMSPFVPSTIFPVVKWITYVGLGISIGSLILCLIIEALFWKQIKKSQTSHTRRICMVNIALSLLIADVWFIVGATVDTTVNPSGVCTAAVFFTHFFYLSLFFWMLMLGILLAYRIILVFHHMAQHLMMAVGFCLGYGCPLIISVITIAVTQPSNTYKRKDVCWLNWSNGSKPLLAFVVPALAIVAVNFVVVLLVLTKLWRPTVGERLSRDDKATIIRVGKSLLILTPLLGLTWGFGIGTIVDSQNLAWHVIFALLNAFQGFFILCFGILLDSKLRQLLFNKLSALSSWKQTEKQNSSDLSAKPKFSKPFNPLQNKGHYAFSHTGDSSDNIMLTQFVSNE
Chain of 320 non-olfactory GPCRs (Homo sapiens, UniProt P32238) (P32238 whole entry): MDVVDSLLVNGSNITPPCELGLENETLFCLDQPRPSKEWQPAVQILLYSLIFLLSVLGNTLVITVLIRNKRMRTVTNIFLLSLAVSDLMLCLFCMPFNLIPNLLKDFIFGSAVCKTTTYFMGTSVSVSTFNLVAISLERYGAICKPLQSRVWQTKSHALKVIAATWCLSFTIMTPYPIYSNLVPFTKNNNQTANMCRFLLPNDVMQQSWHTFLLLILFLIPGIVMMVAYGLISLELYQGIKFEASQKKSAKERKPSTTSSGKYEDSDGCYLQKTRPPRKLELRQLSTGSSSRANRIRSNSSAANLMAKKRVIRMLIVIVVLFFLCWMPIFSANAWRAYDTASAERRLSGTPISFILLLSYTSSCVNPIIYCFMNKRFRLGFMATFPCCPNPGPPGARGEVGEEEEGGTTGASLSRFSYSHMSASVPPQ

CCOc1cccc2cc(C(C)NCC3(O)CCCCC3)oc12 (stereo not shown) [O4LE6]
Fold of Basal (320 non-olfactory GPCRs [1]): 0.7534 and 0.5781 and 0.7634
Fold of Basal (320 non-olfactory GPCRs [2]): 0.8879 and 0.8535 and 0.8133 and 1.029
GPCRome agonism screen response (320 non-olfactory GPCRs [3]): 2.508 and 1.456 and 1.732 and 0.428
GPCRome agonism screen response (320 non-olfactory GPCRs [4]): 1.144 and 0.3717 and 0.6675 and 1.8673
